In BindingDB's records for doi:10.1124/jpet.104.081539 (Kyowa Hakko Kogyo, 2005):

Experiments:
D(2) dopamine receptor = D(2) dopamine receptor (Homo sapiens, UniProt P14416)
Histamine H1 receptor = Histamine H1 receptor (Homo sapiens, UniProt P35367)
Thromboxane A2 receptor = molecular target: T1, Thromboxane A2 receptor (Homo sapiens, UniProt P21731)
T1 sequence (P21731 whole entry): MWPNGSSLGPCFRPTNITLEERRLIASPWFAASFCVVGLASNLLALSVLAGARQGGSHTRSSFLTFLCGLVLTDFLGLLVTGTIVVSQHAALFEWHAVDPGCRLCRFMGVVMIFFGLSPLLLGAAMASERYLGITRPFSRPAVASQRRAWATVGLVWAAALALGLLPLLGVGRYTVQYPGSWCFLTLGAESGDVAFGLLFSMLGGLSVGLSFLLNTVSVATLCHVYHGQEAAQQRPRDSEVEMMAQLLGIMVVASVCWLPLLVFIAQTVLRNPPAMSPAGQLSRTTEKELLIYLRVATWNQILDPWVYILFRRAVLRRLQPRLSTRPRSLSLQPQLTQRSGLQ

[1] = molecular target: Leukotriene B4 receptor 1 (Homo sapiens) (UniProt Q15722)
Sequence of Leukotriene B4 receptor 1 (Homo sapiens) (Q15722 whole entry, looked up): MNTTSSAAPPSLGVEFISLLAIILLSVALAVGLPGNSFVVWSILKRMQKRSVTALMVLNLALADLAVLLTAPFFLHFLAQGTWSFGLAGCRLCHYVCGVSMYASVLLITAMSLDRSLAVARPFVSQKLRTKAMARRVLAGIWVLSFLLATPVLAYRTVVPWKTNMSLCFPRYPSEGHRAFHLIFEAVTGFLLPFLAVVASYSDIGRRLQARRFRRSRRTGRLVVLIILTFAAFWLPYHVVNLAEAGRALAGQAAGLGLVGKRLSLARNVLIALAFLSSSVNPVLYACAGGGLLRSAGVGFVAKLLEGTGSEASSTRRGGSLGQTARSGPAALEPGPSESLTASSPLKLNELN

D(1A) dopamine receptor = D(1A) dopamine receptor (Homo sapiens, UniProt P21728)
Sequence of D(1A) dopamine receptor (P21728 whole entry): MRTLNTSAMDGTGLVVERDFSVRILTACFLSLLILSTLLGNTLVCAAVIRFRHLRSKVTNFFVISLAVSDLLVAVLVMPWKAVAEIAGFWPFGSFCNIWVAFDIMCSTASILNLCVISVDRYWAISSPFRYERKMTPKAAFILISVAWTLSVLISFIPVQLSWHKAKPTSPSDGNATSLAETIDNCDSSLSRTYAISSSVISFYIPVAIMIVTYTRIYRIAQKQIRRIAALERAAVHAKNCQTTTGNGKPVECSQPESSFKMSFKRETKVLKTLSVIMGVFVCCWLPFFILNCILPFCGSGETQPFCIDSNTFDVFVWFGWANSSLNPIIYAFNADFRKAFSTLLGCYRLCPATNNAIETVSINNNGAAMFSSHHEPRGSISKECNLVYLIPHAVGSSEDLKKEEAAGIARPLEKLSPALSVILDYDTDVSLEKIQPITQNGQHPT

[2] = molecular target: 5-hydroxytryptamine receptor 2A (Rattus norvegicus, UniProt P14842)
Sequence of 5-hydroxytryptamine receptor 2A (P14842 whole entry): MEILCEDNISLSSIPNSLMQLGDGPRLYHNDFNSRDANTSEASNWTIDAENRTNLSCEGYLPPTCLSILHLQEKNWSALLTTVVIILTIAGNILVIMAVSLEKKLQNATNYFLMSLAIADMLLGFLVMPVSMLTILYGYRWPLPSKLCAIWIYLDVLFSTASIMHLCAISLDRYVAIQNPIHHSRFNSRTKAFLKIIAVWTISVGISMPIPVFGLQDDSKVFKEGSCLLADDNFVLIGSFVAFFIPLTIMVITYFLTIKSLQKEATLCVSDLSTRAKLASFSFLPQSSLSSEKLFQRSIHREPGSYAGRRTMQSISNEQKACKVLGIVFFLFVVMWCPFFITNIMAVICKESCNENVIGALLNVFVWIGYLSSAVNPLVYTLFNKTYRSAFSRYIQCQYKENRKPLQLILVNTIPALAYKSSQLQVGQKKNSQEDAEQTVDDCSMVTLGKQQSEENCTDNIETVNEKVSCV

[3] = molecular target: T2, Alpha-2A adrenergic receptor [16-465] (Rattus norvegicus, UniProt P22909)
T2 construct: 16-465
T2 sequence (P22909 whole entry): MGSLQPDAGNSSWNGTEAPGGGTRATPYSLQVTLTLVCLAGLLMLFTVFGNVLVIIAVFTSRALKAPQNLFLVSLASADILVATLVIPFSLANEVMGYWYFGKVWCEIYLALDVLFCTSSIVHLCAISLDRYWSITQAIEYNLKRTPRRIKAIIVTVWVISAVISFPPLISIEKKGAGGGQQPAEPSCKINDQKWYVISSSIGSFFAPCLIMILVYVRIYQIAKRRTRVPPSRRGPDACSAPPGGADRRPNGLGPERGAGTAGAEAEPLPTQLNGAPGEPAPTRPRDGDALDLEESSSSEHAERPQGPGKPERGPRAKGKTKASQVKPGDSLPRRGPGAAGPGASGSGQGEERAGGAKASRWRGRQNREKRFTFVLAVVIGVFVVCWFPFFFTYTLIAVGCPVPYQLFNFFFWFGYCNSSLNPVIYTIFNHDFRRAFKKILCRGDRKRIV

[4] = molecular target: Prostaglandin G/H synthase 1 (Homo sapiens, UniProt P23219)
Sequence of Prostaglandin G/H synthase 1 (P23219 whole entry): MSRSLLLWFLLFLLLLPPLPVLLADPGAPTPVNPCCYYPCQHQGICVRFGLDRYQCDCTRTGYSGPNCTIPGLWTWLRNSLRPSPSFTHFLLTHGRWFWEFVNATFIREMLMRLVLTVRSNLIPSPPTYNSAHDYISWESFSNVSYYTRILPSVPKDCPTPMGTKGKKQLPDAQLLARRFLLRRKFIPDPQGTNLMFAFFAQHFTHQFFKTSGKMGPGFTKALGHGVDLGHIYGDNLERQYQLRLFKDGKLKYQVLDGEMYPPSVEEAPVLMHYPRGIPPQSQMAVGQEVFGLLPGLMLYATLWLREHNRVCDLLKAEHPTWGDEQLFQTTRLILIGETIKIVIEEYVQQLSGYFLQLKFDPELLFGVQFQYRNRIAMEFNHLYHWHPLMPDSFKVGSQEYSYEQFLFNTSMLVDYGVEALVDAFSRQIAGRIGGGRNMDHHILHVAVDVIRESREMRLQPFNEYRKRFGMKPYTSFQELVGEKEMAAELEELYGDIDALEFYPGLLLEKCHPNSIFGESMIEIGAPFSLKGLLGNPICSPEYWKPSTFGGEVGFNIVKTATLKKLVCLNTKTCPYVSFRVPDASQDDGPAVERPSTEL

[5] = molecular target: Platelet-activating factor receptor (Homo sapiens, UniProt P25105)
Sequence of Platelet-activating factor receptor (P25105 whole entry): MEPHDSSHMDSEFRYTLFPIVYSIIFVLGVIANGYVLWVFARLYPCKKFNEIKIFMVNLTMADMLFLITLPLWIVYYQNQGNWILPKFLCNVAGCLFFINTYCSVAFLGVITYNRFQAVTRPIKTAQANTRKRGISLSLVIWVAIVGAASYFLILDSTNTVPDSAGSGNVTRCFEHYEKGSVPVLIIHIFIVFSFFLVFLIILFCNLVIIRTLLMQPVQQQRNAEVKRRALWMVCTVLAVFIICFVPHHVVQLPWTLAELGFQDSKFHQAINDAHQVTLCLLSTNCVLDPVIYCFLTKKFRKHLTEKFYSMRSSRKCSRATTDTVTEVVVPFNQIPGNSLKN

[6] = molecular target: T3, Muscarinic acetylcholine receptor M1 (Homo sapiens, UniProt P11229)
T3 sequence (P11229 whole entry): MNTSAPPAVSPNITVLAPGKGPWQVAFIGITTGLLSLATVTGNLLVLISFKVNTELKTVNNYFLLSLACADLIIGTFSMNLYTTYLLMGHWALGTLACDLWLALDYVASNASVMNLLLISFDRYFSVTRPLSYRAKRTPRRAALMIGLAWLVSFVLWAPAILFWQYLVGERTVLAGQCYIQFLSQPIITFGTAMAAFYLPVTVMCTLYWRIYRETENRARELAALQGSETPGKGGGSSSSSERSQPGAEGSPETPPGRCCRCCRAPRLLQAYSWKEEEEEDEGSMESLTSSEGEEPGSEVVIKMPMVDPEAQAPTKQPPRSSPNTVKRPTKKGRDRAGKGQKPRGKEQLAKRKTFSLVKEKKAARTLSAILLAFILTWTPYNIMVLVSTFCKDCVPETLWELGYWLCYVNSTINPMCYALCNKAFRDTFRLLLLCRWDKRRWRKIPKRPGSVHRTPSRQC

[7] = molecular target: T4, Cysteinyl leukotriene receptor 1 (Homo sapiens, UniProt Q9Y271)
T4 sequence (Q9Y271 whole entry): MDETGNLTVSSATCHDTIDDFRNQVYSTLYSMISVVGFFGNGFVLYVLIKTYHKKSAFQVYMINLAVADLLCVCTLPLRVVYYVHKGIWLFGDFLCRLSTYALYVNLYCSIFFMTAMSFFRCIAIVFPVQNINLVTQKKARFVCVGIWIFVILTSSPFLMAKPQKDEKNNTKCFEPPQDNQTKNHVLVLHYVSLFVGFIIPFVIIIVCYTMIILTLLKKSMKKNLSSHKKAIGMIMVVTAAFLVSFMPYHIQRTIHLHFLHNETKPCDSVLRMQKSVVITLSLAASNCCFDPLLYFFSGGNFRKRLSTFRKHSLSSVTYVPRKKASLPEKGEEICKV

[8] = molecular target: T5, Prostaglandin D2 receptor (Homo sapiens, UniProt Q13258)
T5 sequence (Q13258 whole entry): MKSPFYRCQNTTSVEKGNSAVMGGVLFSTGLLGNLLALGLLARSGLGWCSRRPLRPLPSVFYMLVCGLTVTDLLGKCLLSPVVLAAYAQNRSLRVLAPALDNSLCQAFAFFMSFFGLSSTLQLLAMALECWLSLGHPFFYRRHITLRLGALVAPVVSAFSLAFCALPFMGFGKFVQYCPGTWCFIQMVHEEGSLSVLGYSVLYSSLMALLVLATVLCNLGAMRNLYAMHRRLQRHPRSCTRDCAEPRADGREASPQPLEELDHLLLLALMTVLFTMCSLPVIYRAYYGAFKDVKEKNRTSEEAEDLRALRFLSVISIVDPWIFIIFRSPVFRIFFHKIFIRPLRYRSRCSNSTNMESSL

Measured: Ki

Sequence of Histamine H1 receptor (P35367 whole entry): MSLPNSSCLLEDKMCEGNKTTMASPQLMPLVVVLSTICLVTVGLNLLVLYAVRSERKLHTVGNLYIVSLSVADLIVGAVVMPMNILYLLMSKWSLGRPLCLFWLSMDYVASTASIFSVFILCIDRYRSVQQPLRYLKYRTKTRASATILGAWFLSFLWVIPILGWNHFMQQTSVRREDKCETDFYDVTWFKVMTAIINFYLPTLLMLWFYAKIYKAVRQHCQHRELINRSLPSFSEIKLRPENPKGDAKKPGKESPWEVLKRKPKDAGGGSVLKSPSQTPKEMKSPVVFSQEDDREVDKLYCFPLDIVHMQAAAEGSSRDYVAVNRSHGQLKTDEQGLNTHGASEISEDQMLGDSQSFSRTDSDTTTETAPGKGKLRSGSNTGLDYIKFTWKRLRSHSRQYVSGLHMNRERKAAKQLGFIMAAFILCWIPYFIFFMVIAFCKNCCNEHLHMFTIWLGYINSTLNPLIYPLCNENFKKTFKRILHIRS
Sequence of D(2) dopamine receptor (P14416 whole entry): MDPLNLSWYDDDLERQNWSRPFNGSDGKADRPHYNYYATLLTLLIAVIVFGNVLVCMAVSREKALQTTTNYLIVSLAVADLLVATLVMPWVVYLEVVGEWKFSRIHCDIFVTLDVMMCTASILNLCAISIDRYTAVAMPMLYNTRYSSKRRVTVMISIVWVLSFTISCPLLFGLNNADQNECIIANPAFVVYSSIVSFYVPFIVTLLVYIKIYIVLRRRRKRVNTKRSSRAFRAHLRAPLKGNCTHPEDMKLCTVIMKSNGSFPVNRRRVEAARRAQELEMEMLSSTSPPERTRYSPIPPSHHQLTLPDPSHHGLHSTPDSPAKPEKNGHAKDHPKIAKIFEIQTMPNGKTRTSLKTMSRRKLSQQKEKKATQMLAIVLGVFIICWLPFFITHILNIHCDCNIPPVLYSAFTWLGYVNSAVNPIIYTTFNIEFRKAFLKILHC

CC1CC(N(C(=O)C2CC2)c2ccccc2)c2ccccc2N1C(=O)c1ccccc1 (stereo unspecified) [K604]
> 1000 nM: all assays above

CC(C)C(=O)N(c1ccccc1)C1CC(C)N(C(=O)c2ccccc2)c2ccccc21 (stereo unspecified) [K117]
> 1000 nM: all assays above

CCC(=O)N1c2ccccc2C(N(C(C)=O)c2ccccc2)CC1C (stereo unspecified) [K376]
> 1000 nM: all assays above
